Among the data in PubChem BioAssay (NCI) are TGI and GI50 values, retold here.

“And” between values parts separate entries of the source, which are not always exact repeats. Identical values can stand only once.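 Cultured in 96-well plates, cells were exposed to test compound for 48 hours across five concentrations. GI50 = concentration required for 50% inhibition of growth. TGI marks complete inhibition of growth.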

Among the test systems are 786-0 renal; A549 NSCLC; HCT-15 colon; HOP-62 NSCLC; HOP-92 NSCLC; HS 578T breast; MCF7 breast; NCI-H23 lung; OVCAR-4 ovarian; U251 CNS.
What all share (assay): NCI anticancer screen, dose series, 48 h

Consider `CCOc1cc2c(=O)oc3c(OC)ccc4ccc(c1OC)c2c43`, for which the TGI in the assay on 786-0 renal, in the assay with A549 NSCLC, in the assay with HCT-15 colon, with HOP-62 NSCLC, in the assay with HOP-92 NSCLC and in the assay on HS 578T breast was greater than 100 µM each time. Further, the TGI with MCF7 breast, with NCI-H23 lung, in the assay on OVCAR-4 ovarian and in the assay on U251 CNS was greater than 100 µM each time.

`CCCCCCCCCCCCCCCC(=O)OCC1OC(OC)C(NC(=O)N(CCCl)N=O)C(O)C1O` (stereo not drawn): the TGI in the assay on 786-0 renal was found to be 14.9 µM; with A549 NSCLC, 35.2 µM; with HCT-15 colon it was 35.4 µM; with HOP-62 NSCLC, 31.9 µM; in the assay on HOP-92 NSCLC, 47.8 µM; in the assay on HS 578T breast, 63.9 µM. In addition, the TGI in the assay on MCF7 breast was greater than 100 µM; in the assay on NCI-H23 lung, 32 µM; in the assay on OVCAR-4 ovarian, 53.4 µM; in the assay on U251 CNS, 27 µM.

As for `COc1ccc(/C=N\NC(=O)c2ccc3nc(-c4ccc(Cl)cc4)[nH]c3c2)cc1`, the GI50 with 786-0 renal was 1.93 µM; in the assay with A549 NSCLC it was 2.46 µM; with HCT-15 colon, 3.24 µM; in the assay on HOP-62 NSCLC, 1.88 µM; in the assay on HOP-92 NSCLC, 1.52 µM; in the assay on HS 578T breast, 2.3 µM. For the same compound, the GI50 was 1.47 µM in the assay with MCF7 breast, 2.74 µM in the assay with NCI-H23 lung, 1.79 µM in the assay with OVCAR-4 ovarian and 2.43 µM in the assay with U251 CNS. Further, the TGI stood at 3.67 µM in the assay with 786-0 renal; 5.65 µM in the assay with A549 NSCLC; 12.8 µM with HCT-15 colon; 6.37 µM with HOP-62 NSCLC; 4.11 µM in the assay on HOP-92 NSCLC; 5.64 µM in the assay on HS 578T breast. The TGI in the assay on MCF7 breast turned out to be 3.84 µM; in the assay with NCI-H23 lung, 11.2 µM; with OVCAR-4 ovarian, 3.36 µM; with U251 CNS it was 5.22 µM.

On to `O=c1c2c(=NCCN3CCCC3)cc3c(=O)n(CCCN4CCOCC4)c(=O)c4ccc(c(O)n1CCCN1CCOCC1)c2c4-3`, for which the GI50 is 0.145 µM in the assay on 786-0 renal; 0.0441 µM in the assay with A549 NSCLC; less than 0.0201 µM in the assay with HCT-15 colon; 0.0577 µM in the assay on HOP-62 NSCLC; 0.129 µM in the assay on HOP-92 NSCLC; 1.18 µM in the assay on HS 578T breast. Further, the GI50 in the assay on MCF7 breast was 0.0752 µM; with NCI-H23 lung it was 0.118 µM; in the assay on OVCAR-4 ovarian it was 0.13 µM; in the assay on U251 CNS, 0.11 µM. Moreover, the TGI with 786-0 renal is 1.1 µM; in the assay with A549 NSCLC it was 3.44 µM; with HCT-15 colon, 0.946 µM; in the assay with HOP-62 NSCLC it was 0.832 µM; in the assay with HOP-92 NSCLC it was 0.607 µM; in the assay on HS 578T breast it was 5.24 µM. Further, the TGI with MCF7 breast was 1.13 µM; in the assay on NCI-H23 lung it was 0.627 µM; in the assay on OVCAR-4 ovarian it was 0.735 µM; with U251 CNS, 1.95 µM.

With `COc1ccc(-n2cc(-c3cc(OC)c(OC)c(OC)c3)[nH]c2=S)cc1Cl`, the GI50 in the assay on 786-0 renal is 23.4 µM; with A549 NSCLC it was 65.5 µM; in the assay on HCT-15 colon it was greater than 100 µM; with HOP-62 NSCLC, 22.1 µM; in the assay with HOP-92 NSCLC, 14 µM; with HS 578T breast it was 17.5 µM. Also, the GI50 in the assay with MCF7 breast was 68 µM; in the assay with NCI-H23 lung, 46.4 µM; in the assay on OVCAR-4 ovarian, 27.2 µM; in the assay with U251 CNS, 20 µM. Moreover, the TGI was 54.5 µM in the assay on 786-0 renal; greater than 100 µM in the assay with A549 NSCLC; greater than 100 µM with HCT-15 colon; 52.8 µM with HOP-62 NSCLC; 33 µM with HOP-92 NSCLC; 60 µM in the assay on HS 578T breast. Moreover, the TGI in the assay with MCF7 breast was greater than 100 µM; in the assay with NCI-H23 lung, greater than 100 µM; in the assay with OVCAR-4 ovarian it was greater than 100 µM; in the assay with U251 CNS it was 50.7 µM.

Take `COc1cc2cnc(-c3ccccc3)cc2cc1OC`: the TGI in the assay on 786-0 renal is greater than 100 µM; in the assay on A549 NSCLC, 85.3 µM; in the assay with HCT-15 colon, 46.5 µM; in the assay with HOP-62 NSCLC, greater than 100 µM; with HOP-92 NSCLC it was 65.9 µM; in the assay on HS 578T breast, 53.8 µM. In addition, the TGI with MCF7 breast is greater than 100 µM; in the assay on NCI-H23 lung, 56.7 µM; in the assay on OVCAR-4 ovarian, 82 µM; with U251 CNS, 56.5 µM.

`Cc1ccc(-c2cc(-c3ccc(C)cc3)nc(N3CCN(CCNc4ccnc5cc(Cl)ccc45)CC3)n2)cc1`: the GI50 in the assay on 786-0 renal is 1.81 µM; with A549 NSCLC it was 3.62 µM; in the assay with HCT-15 colon, 3.42 µM; in the assay with HOP-62 NSCLC it was 1.58 µM; in the assay with HOP-92 NSCLC, 0.963 µM; in the assay on HS 578T breast, 1.41 µM. Further, the GI50 in the assay with MCF7 breast was 2.11 µM; in the assay on NCI-H23 lung it was 3.63 µM; with OVCAR-4 ovarian, 0.912 µM; with U251 CNS, 1.43 µM. The TGI in the assay with 786-0 renal was found to be 6.95 µM; with A549 NSCLC it was 13.3 µM; in the assay with HCT-15 colon it was 24.5 µM; in the assay with HOP-62 NSCLC, 6.52 µM; in the assay with HOP-92 NSCLC, 4.25 µM; in the assay with HS 578T breast, 4.56 µM. The TGI came out at 13.4 µM in the assay on MCF7 breast, 17.5 µM in the assay on NCI-H23 lung, 1.9 µM with OVCAR-4 ovarian and 5.39 µM with U251 CNS.

Take `O=C1/C(=C/c2ccc(Cl)cc2)CCC1CN1CCOCC1` (stereo not drawn): the TGI is 6.2 µM in the assay on 786-0 renal; 55.9 µM in the assay with A549 NSCLC; 11.6 µM in the assay with HCT-15 colon; 35.1 µM in the assay on HOP-62 NSCLC; 16.1 µM in the assay with HOP-92 NSCLC; greater than 100 µM in the assay on HS 578T breast. Besides, the TGI in the assay with MCF7 breast came out at 21 µM; in the assay on NCI-H23 lung, 20.9 µM; with OVCAR-4 ovarian, 34.1 µM; with U251 CNS, 40.2 µM.

`O=C1C(Br)=C(Br)C(=O)c2ccccc21`: the TGI with 786-0 renal was 32.3 µM and 23.5 µM; in the assay on A549 NSCLC, 55.8 µM; in the assay with HCT-15 colon, 31.4 µM and 45.1 µM; in the assay with HOP-62 NSCLC it was 37.6 µM and 44.4 µM; in the assay on HOP-92 NSCLC, 27 µM and 4.59 µM; with HS 578T breast, greater than 60.7 µM. Also, the TGI in the assay on MCF7 breast is greater than 100 µM; in the assay on NCI-H23 lung it was 33.5 µM and 17.6 µM; with OVCAR-4 ovarian it was 31.4 µM and 33.3 µM; in the assay on U251 CNS, 31.3 µM and 4.68 µM. For the same compound, the GI50 with HOP-92 NSCLC was 13.4 µM and 1.73 µM; in the assay with NCI-H23 lung, 17.2 µM and 6.6 µM; in the assay on U251 CNS, 17.5 µM and 2.16 µM.
